These results are taken from patent EP1203770A1 (priority 1992, dated 1994).

Structures are written as SMILES. “And” between values parts separate entries of the source, which are not always exact repeats. Equal entries are not always repeated.

In the assay the target is T1, HIV-1 protease (Human immunodeficiency virus type 1 group M subtype B, UniProt P04585).
T1 construct: The protease (or proteinase), consisting of only 99 amino acids, is among the smallest enzymes known
Kind of assay: In vitro HIV protease inhibitory assay (HIV Protease FITC Assay). The settings on record: for Ki: read-out: HIV-1 FITC Ki. Format: biochemical. In short, it runs like this: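 Percent inhibition was read as fluorescence after avidin-bead capture and filtration separated FITC cleavage product from biotinylated substrate. Enzyme and substrate reacted 1 h, RT, dark, at pH 5.5 (0.1 M sodium acetate, 1.0 M NaCl, 0.05% NP-40).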

Where [1] appears, read: HIV-1 Dose 100.000 uM, read-out: HIV-1 Protease % Inhib.
The mark [2] stands for this setting: HIV-1 Dose 10.000 uM, read-out: HIV-1 Protease % Inhib.
Where [3] appears, read: HIV-1 Dose 1.000 uM, read-out: HIV-1 Protease % Inhib.

The term Ki denotes the equilibrium dissociation constant of an inhibitor or competing ligand from its target. As for `CCCc1oc(=O)c(C(c2ccccc2)C2CC2)c(O)c1CCOCCOC` (stereo not drawn) [Example 78, 3-(Cyclopropyl-phenyl-methyl)-4-hydroxy-5-[2-(2-methoxy-ethoxy)-ethyl]-6-propyl-pyran-2-one], the Ki was 196 nM. For the same compound, the inhibition at 0.41 µM (HIV-1 Dose 0.410 uM, read-out: HIV-1 Protease % Inhib) came out at 50.5%. Besides, the inhibition at 1.23 µM (HIV-1 Dose 1.230 uM, read-out: HIV-1 Protease % Inhib) stood at 68.9%. Further, the inhibition at 3.7 µM (HIV-1 Dose 3.700 uM, read-out: HIV-1 Protease % Inhib) was 93.2%. For the setting “HIV-1 Dose 11.000 uM, read-out: HIV-1 Protease % Inhib”, the inhibition at 11 µM worked out at 101%. Under “HIV-1 Dose 33.000 uM, read-out: HIV-1 Protease % Inhib”, the inhibition at 33 µM was 107%. Also, the inhibition at 100 µM under setting [1] worked out at 106%.

Regarding `O=c1oc(C(CC2CC2)CC2CC2)cc(O)c1C(Cc1ccccc1)Cc1ccccc1` [Example 79, 3-(1-Benzyl-2-phenyl-ethyl)-6-(2-cyclopropyl-1-cyclopropylmethyl-ethyl)-4-hydroxy-pyran-2-one], the Ki came to 33 nM. Under “HIV-1 Dose 0.123 uM, read-out: HIV-1 Protease % Inhib”, the inhibition at 0.123 µM is 39.9%. Moreover, the inhibition at 0.37 µM (HIV-1 Dose 0.370 uM, read-out: HIV-1 Protease % Inhib) was determined as 76.7%. The inhibition at 1.1 µM (HIV-1 Dose 1.100 uM, read-out: HIV-1 Protease % Inhib) came out at 106%. Besides, the inhibition at 3.3 µM (HIV-1 Dose 3.300 uM, read-out: HIV-1 Protease % Inhib) stood at 111%. For the same compound, the inhibition at 10 µM under setting [2] turned out to be 122%. For the same compound, the inhibition at 30 µM (HIV-1 Dose 30.000 uM, read-out: HIV-1 Protease % Inhib) was found to be 117%.

Regarding `CC(C)CC(CC(C)C)c1cc(O)c(C(c2ccccc2)C2CC2)c(=O)o1` (stereo not drawn) [Example 80, 3-(Cyclopropyl-phenyl-methyl)-4-hydroxy-6-(1-isobutyl-3-methyl-butyl)-pyran-2-one], the inhibition at 1 µM under setting [3] stood at 50.5%. For the same compound, the inhibition at 10 µM under setting [2] turned out to be 78.9%. Also, the inhibition at 100 µM under setting [1] was determined as 102%.

Consider `O=c1oc(C(CC2CC2)CC2CC2)cc(O)c1C(c1ccccc1)C1CC1` (stereo not drawn) [Example 81], for which the inhibitory constant (Ki) worked out at 31 nM. For the same compound, the “HIV-1 Protease % Inhib” value (HIV-1 Dose 1.000 uM) was 41.76%. Where the note is “HIV-1 Dose 10.000 uM”, the “HIV-1 Protease % Inhib” value is given as 76.98%. For the same compound, the “HIV-1 Protease % Inhib” value (HIV-1 Dose 100.000 uM) is 83.48% and 83.5%. In addition, the “HIV-1 Protease % Inhib” value (dose not given) is below 10%.

For `O=c1oc(CCc2ccccc2)cc(O)c1C(C1CC1)C1CC1` [Example 82, 3-Dicyclopropylmethyl-4-hydroxy-6-phenethyl-pyran-2-one], the inhibition at 1 µM under setting [3] stood at 19.8%. Besides, the inhibition at 10 µM under setting [2] worked out at 90.9%. In addition, the inhibition at 100 µM under setting [1] worked out at 106%.

As to `CC(c1cc(O)c(C(C2CC2)C2CC2)c(=O)o1)C1CC1` (stereo not drawn) [Example 83, 6-(1-Cyclopropyl-ethyl)-3-dicyclopropylmethyl-4-hydroxy-pyran-2-one], the inhibition at 1 µM under setting [3] came to 10.5%. Besides, under setting [2], the inhibition at 10 µM amounted to 72%. Besides, under setting [1], the inhibition at 100 µM turned out to be 93.5%.

Regarding `CC(CC1CC1)(c1cc(O)c(C(C2CC2)C2CC2)c(=O)o1)C1CC1` (stereo not drawn) [Example 84, 6-(1-Cyclopropyl-1-cyclopropylmethyl-ethyl)-3-dicyclopropylmethyl-4-hydroxy-pyran-2-one], the inhibition at 1 µM under setting [3] was 54.8%. Besides, the inhibition at 10 µM under setting [2] turned out to be 91%. For the same compound, the “HIV-1 Protease % Inhib” value (HIV-1 Dose 100.000 uM) is 120.09% and 100%.

With `CCC(CC1CCCCC1)c1cc(O)c(C(c2ccccc2)C2CC2)c(=O)o1` (stereo not drawn) [Example 85, 6-(1-Cyclohexylmethyl-propyl)-3-(cyclopropyl-phenyl-methyl)-4-hydroxy-pyran-2-one], the inhibition at 1 µM under setting [3] was determined as 11.6%. Besides, the inhibition at 10 µM under setting [2] was found to be 77%. In addition, under setting [1], the inhibition at 100 µM was 92.1%.

For `CCC(c1ccccc1)c1c(O)cc(C(CC2CC2)CC2CC2)oc1=O` (stereo not drawn) [Example 87, 6-(2-Cyclopropyl-1-cyclopropylmethyl-ethyl)-4-hydroxy-3(1-phenyl-propyl)-pyran-2-one], the inhibition at 1 µM under setting [3] came out at 17.8%. Under setting [2], the inhibition at 10 µM was 83.8%. Besides, the inhibition at 100 µM under setting [1] turned out to be 90.2%.

As to `O=c1oc(C(Cc2ccccc2)CC2CC2)cc(O)c1C(c1ccccc1)C1CC1` (stereo not drawn) [Example 88, 6-(1-Benzyl-2-cyclopropyl-ethyl)-3-(cyclopropyl-phenyl-methyl)-4-hydroxy-pyran-2-one], the inhibition at 1 µM under setting [3] is 46.2%. Moreover, under setting [2], the inhibition at 10 µM stood at 60.8%. Further, the inhibition at 100 µM under setting [1] worked out at 95.1%.

With `O=c1oc(CCC2CC2)cc(O)c1C(c1ccccc1)C1CC1` (stereo not drawn) [Example 89, 6-(2-Cyclopropyl-ethyl)-3-(cyclopropyl-phenyl-methyl)-4-hydroxy-pyran-2-one], under setting [3], the inhibition at 1 µM was below 10%. Under setting [2], the inhibition at 10 µM was found to be 70%. In addition, the inhibition at 100 µM under setting [1] was found to be 84%. The “HIV-1 Protease % Inhib” value (dose not given) is listed as below 10%.

As for `CCC(CC1CC1)c1cc(O)c(C(c2ccccc2)C2CC2)c(=O)o1` (stereo not drawn) [Example 90, 6-(1-Cyclopropylmethyl-propyl)-3-(cyclopropyl-phenyl-methyl)-4-hydroxy-pyran-2-one], the inhibition at 1 µM under setting [3] was determined as 61.2%. Besides, the inhibition at 10 µM under setting [2] was found to be 95.1%. Where the note is “HIV-1 Dose 100.000 uM”, the “HIV-1 Protease % Inhib” value came out at 96%. Also, the inhibition at 100 µM under setting [1] came out at 95.9%.

With `O=c1oc(CCCCc2ccccc2)cc(O)c1C(c1ccccc1)C1CC1` (stereo not drawn) [Example 91, 3-(Cyclopropyl-phenyl-methyl)-4-hydroxy-6-(4-phenyl-butyl)-pyran-2-one], under setting [3], the inhibition at 1 µM was below 10%. Moreover, the inhibition at 10 µM under setting [2] amounted to 27.8%. In addition, the inhibition at 100 µM under setting [1] turned out to be 62%.

Turning to `O=c1oc(C(CC2CC2)CC2CC2)cc(O)c1C(C1CCCCC1)C1CC1` (stereo not drawn) [Example 92, 3-(Cyclohexyl-cyclopropyl-methyl)-6-(2-cyclopropyl-1-cyclopropylmethyl-ethyl)-4-hydroxy-pyran-2-one], under setting [3], the inhibition at 1 µM turned out to be 38.3%. Further, the inhibition at 10 µM under setting [2] was determined as 80.9%. Moreover, the inhibition at 100 µM under setting [1] is 87.1%.

As to `CCC(CCCc1ccccc1)c1cc(O)c(C(c2ccccc2)C2CC2)c(=O)o1` (stereo not drawn) [Example 93, 3-(Cyclopropyl-phenyl-methyl)-6-(1-ethyl-4-phenyl-butyl)-4-hydroxy-pyran-2-one], the “HIV-1 Protease % Inhib” value runs as follows: (HIV-1 Dose 10.000 uM) 67.65% and 71.27%; (HIV-1 Dose 100.000 uM) 59.48% and 67.68%; (dose not given) below 10%. Further, the inhibition at 10 µM under setting [2] is 72.6%. Further, the inhibition at 100 µM under setting [1] worked out at 79.3%.

On to `O=c1oc(CCCC2CCCCC2)cc(O)c1C(c1ccccc1)C1CC1` (stereo not drawn) [Example 94, 6-(3-Cyclohexyl-propyl)-3-(cyclopropyl-phenyl-methyl)-4-hydroxy-pyran-2-one], for which the inhibition at 1 µM under setting [3] was below 10%. Further, the inhibition at 10 µM under setting [2] was 25%. For the same compound, under setting [1], the inhibition at 100 µM came to 52.4%.

With `CCC(CCC1CCCCC1)c1cc(O)c(C(c2ccccc2)C2CC2)c(=O)o1` (stereo not drawn) [Example 95, 6-(3-Cyclohexyl-1-ethyl-propyl)-3-(cyclopropyl-phenyl-methyl)-4-hydroxy-pyran-2-one], the inhibition at 1 µM under setting [3] is below 10%. Under setting [2], the inhibition at 10 µM worked out at 33.6%. For the same compound, the inhibition at 100 µM under setting [1] came to 41%.

In the case of `CCC(c1ccccc1)c1c(O)cc(CCC2CC2)oc1=O` (stereo not drawn) [Example 96, 6-(2-Cyclopropyl-ethyl)-4-hydroxy-3-(1-phenyl-propyl)-pyran-2-one], the inhibition constant (Ki) came to 1400 nM. In addition, the inhibition at 1 µM under setting [3] was 27.9%. The inhibition at 10 µM under setting [2] amounted to 77%. Under setting [1], the inhibition at 100 µM came out at 90.5%.

Regarding `C=CCC(CC=C)c1cc(O)c(C(c2ccccc2)C2CC2)c(=O)o1` (stereo not drawn) [Example 97, 6-(1-Allyl-but-3-enyl)-3-(cyclopropyl-phenyl-methyl)-4-hydroxy-pyran-2-one], the Ki came out at 100 nM. In addition, the inhibition at 1 µM under setting [3] is 75.9%. Besides, the inhibition at 10 µM under setting [2] stood at 99.6%. Further, the inhibition at 100 µM under setting [1] is 110%.

As for `C=CCCc1cc(O)c(C(c2ccccc2)C2CC2)c(=O)o1` (stereo not drawn) [Example 98, 6-But-3-enyl-3-(cyclopropyl-phenyl-methyl)-4-hydroxy-pyran-2-one], under setting [3], the inhibition at 1 µM is 50.8%. For the same compound, under setting [2], the inhibition at 10 µM was 93.5%. Moreover, the inhibition at 100 µM under setting [1] amounted to 110%.

As for `CCC(CCc1ccccc1)c1cc(O)c(C(c2ccccc2)C2CC2)c(=O)o1` (stereo not drawn) [Example 99, 3-(Cyclopropyl-phenyl-methyl)-6-(1-ethyl-3-phenyl-propyl)-4-hydroxy-pyran-2-one], the inhibition at 1 µM under setting [3] stood at 71.5%. Also, under setting [2], the inhibition at 10 µM worked out at 99.6%. Also, the inhibition at 100 µM under setting [1] amounted to 90.7%.

Turning to `CCC(c1ccccc1)c1c(O)c(Br)c(CCC2CC2)oc1=O` (stereo not drawn) [Example 100, 5-Bromo-6-(2-cyclopropyl-ethyl)-4-hydroxy-3-(1-phenyl-propyl)-pyran-2-one], the Ki was 480 nM. Moreover, the inhibition at 1 µM under setting [3] worked out at 38.3%. Under setting [2], the inhibition at 10 µM came out at 94.6%. The inhibition at 100 µM under setting [1] is 104%.

Consider `CCC(c1ccccc1)c1c(O)cc(C(Cc2ccccc2)Cc2ccccc2)oc1=O` (stereo not drawn) [Example 101, 6-(1-Benzyl-2-phenyl-ethyl)-4-hydroxy-3-(1-phenyl-propyl)-pyran-2-one], for which, under setting [3], the inhibition at 1 µM was 52.2%. Further, the inhibition at 10 µM under setting [2] came to 78.8%. Also, the inhibition at 100 µM under setting [1] turned out to be 97.9%.

`COCCOCCCc1cc(O)c(C(c2ccccc2)C2CC2)c(=O)o1` (stereo not drawn) [Example 102, 3-(Cyclopropyl-phenyl-methyl)-4-hydroxy-6-(3-(2-methoxy-ethoxy)-propyl)-pyran-2-one]: the Ki came to 1520 nM. Further, the inhibition at 1 µM under setting [3] is 33.8%. Under setting [2], the inhibition at 10 µM came to 62.2%. The inhibition at 100 µM under setting [1] was found to be 105%.

As to `COCCOCCCc1oc(=O)c(C(c2ccccc2)C2CC2)c(O)c1CCOCCOC` (stereo not drawn) [Example 103], under setting [3], the inhibition at 1 µM came to 26.6%. Moreover, the inhibition at 10 µM under setting [2] came to 31.3%. Under setting [1], the inhibition at 100 µM came to 83%.
